Assay results reported in patent publication US7867702B2, “Screen for novel protein inhibitors based upon engineered cell line containing an inducible overactivity gene and compensatory gene” (priority 2003, dated 2011).

Columns and labels:
SF58 = experiment: Microtiter-format growth of SF58 with IPTG (assay validation, positive control); format: cell-based, E. coli; details: 0.31 mM IPTG and above vs 0 to 0.16 mM IPTG, 30° C., after 18 hours
Description: The first part of an assay transfer & validation procedure involves the reproduction of the results in microtiter format. […] All 48 replicate cultures of the same microtiter plate of FIG. 3 behaved similarly. […] In addition, after 18 h (6.4×10^4 s) the OD's of the induced cultures are well above controls.
A series of experiments were then performed to assess the signal as a function of the starting inoculum (i.e. the theoretical OD of the culture present in a microtiter well). The data (not shown) indicate that there is no significant difference in the SF58-IPTG growth curve if the inoculum is obtained by dilution of an overnight culture or of an actively growing 42° C.-culture. Consequently, the time for measuring the OD was set at 18 h, and the procedure used was to grow 5 μl of SF53 or SF58 in 30 ml glucose CAA medium (with […]) overnight at 42° C. until the OD600 was 1.2. The stock was diluted 1:100 in glucose CAA (without […]). 90 μl of this was dispensed into each well, with 10 μl of sample. […]
Following the procedure outlined above, a screening of 4240 microbial extracts was performed. Each 96-microtiter plate contained as controls four wells inoculated with SF53, four wells inoculated with SF58 and 8 wells inoculated with SF58 in the presence of 2.5 mM IPTG. […]

[1] = system: strain SF58 (dnaA219, rnh::cam/pdnaA[1-86]-biotin); experiment: Growth of strain SF58 at 30° C. with IPTG-induced Domain I of DnaA (flask cultures, OD450); format: cell-based, E. coli; details: for difference in OD450, induced vs uninduced culture: 10 parallel cultures
Description: The following experiments were performed to provide evidence that strain SF53 will survive when a drug has inactivated the DnaA protein. Such evidence can be obtained without a lead drug, by using production of the N-terminal domain (Domain I amino acids 1 to 86) of wild type DnaA. Domain I of DnaA is important for oligomerization and formation of proper initiation complexes. […] Strain SF53 was transformed with a plasmid carrying an IPTG-inducible gene encoding biotin-tagged Domain I (pBEX5BA-dnaA[1-86]-biotin), transformants checked, and the strain named SF58 (Table 1).
The growth of strain SF58 was tested at three different concentrations of IPTG. An overnight culture of strain SF58 grown at 42° C. was diluted 1:1000 in fresh ABB1 glucose CAA medium and split into five flasks. Culture nos. 1 to 4 were grown at 30° C. and culture no. 5 at 42° C. IPTG was added to culture no. 2, 3 and 4 at a concentration of 0.25, 0.5 and 1 mM, respectively, at the time of dilution. Growth curves were followed by measurement of OD450 for 8 hours. […] The OD450 was less than 0.03 at all time points.
The concentrations of Domain I present after 4 generations growth in the presence of the three different concentrations of IPTG, was assessed by Western blot. A ten-fold difference in OD450 between the culture grown without IPTG (culture no. 1) and the culture grown with 1 mM IPTG (culture no. 4) was obtained after about 10 hours. Thus, when performing a drug screen with the dnaA219rnh strain, a positive hit will be detected by a ten-fold difference in OD450 after about 10 hours in the presence of the drug.
To determine the robustness of the screen and also at which time, in a high throughput assay, it is optimal to measure the difference in OD450 we made the following measurements (FIG. 2). Essentially the same experiment as in FIG. 1 was performed, but OD450 was measured at only three time points, 20 h, 27 h and 48 h, in 10 different parallel cultures. A 20-40 fold difference was obtained after 20 h and after 27 h. After 48 h a background in the uninduced culture started to appear and the difference dropped to about 5 fold. Therefore, measurements of OD450 in high throughput screens should be performed after 10-30 hours of incubation.

## CC(C)S[C@@H]1O[C@H](CO)[C@H](O)[C@H](O)[C@H]1O [IPTG]
SF58
  OD405 of induced SF58 cultures compared with controls: significantly higher than controls
[1]; 1 mM IPTG, 30° C., after about 10 hours
  difference in OD450 between culture grown without IPTG and culture grown with IPTG: ten-fold
[1]; IPTG 0.25, 0.5 and 1 mM, 30° C., OD450 followed for 8 hours
  growth rate of SF58 cultures grown at 30° C. with IPTG: increasing growth rates with increasing concentration of IPTG
[1]; after 20 h, 30° C.
  difference in OD450, induced vs uninduced culture: 20-40 fold
[1]; after 27 h, 30° C.
  difference in OD450, induced vs uninduced culture: 20-40 fold
[1]; after 48 h, 30° C.
  difference in OD450, induced vs uninduced culture: about 5 fold

B1: Domain I: N-terminal domain (amino acids 1 to 86) of wild type DnaA, biotin-tagged, expressed in SF58; poisons initiation complexes (protein, UniProt P03004 1-86, looked up, fragment)
chain: MSLSLWQQCLARLQDELPATEFSMWIRPLQAELSDNTLALYAPNRFVLDWVRDKYLNNINGLLTSFCGADAPQLRFEVGTKPVTQT
modifications: biotin tag
notes: N-terminal domain (amino acids 1 to 86) of wild type DnaA, biotin-tagged, expressed in SF58; poisons initiation complexes
[1]; induction of Domain I by IPTG in SF58, 30° C.
  growth of the strain at 30° C.: restored
